System: NanoLuc-PEST expressing L. mexicana axenic amastigotes
Test: microbe, parasite or virus in culture
Assay type: cell-based
Conditions: for Relative Bioluminescence (%) / viability at 2 µM / viability at 10 µM: 72 hours, relative to DMSO only control, n = 4; for EC50: hit compounds from the axenic amastigote screen, S3 Table, read-out: EC50, Axenic Amastigotes; for viability at 2 µM / viability at 10 µM: Leishmania mexicana, read-out: Relative Bioluminescence (%)

SMILES | Relative Bioluminescence (%) (2 µM compound) | Relative Bioluminescence (%) (10 µM compound) | EC50 | viability at 2 µM (2 µM compound) | viability at 10 µM (10 µM compound)
O=C(NC1CC1)c1ccc(N2CCC(Cc3ccccc3)CC2)nc1 [MMV024397] | 92.24% | 86.39% | – | – | –
CC(C)C(Oc1cccc2ccccc12)C(=O)O (centres unmarked) [MMV676191] | 107.96% | 94.76% | – | – | –
O=[N+]([O-])c1cn2c(n1)OC[C@@H](OCc1ccc(OC(F)(F)F)cc1)C2 [MMV688755] | 26.38% | 0.45% | – | – | –
Cc1ccccc1C(=O)N1NC(=Nc2ccccc2)SC1(C)C [MMV688771] | 70.08% | 37.89% | – | – | –
COc1ccc(C2(C(=O)Nc3ccc(Br)cc3)CCCC2)cc1 [MMV200748] | 64.99% | 61.91% | – | – | –
O=C(NCc1ccoc1)N1CCN(Cc2ccc3c(c2)OCO3)CC1 [MMV688553] | 90.94% | 98.31% | – | – | –
CC(C)(C)C(=O)N(CCCCCCN1C[C@H](O)[C@@H](O)[C@H](O)[C@H]1CO)C1CCCCCC1 [MMV688543] | 65.10% | 39.32% | – | – | –
CC(C)(C)OC(=O)N1CCC(Cn2nc(-c3cnc4ccccc4c3)c3c(N)ncnc32)CC1 [MMV688364] | 80.73% | 58.45% | – | – | –
Cc1cc(C)nc(-n2nc(C)cc2Nc2ccccc2)n1 [MMV062221] | 64.16% | 7.64% | – | – | –
CC1(C)Cc2c(c(N3CCOCC3)nc3snc(Br)c23)CO1 [MMV687794] | 97.30% | 72.05% | – | – | –
Cc1ccc2c(c1C)NC(=O)C21NN=C(c2ccccc2)S1 (centres unmarked) [MMV019189] | -1.73% | -1.42% | 320 nM | – | –
Cc1cccc(NC(=O)c2cc(S(=O)(=O)N(C)c3ccc(F)cc3)ccc2Cl)n1 [MMV676528] | 77.13% | 57.74% | – | – | –
Cc1cc2nc(NC(=O)C(C)(C)C)nc(Cl)c2n1Cc1ccc(Cl)cc1 [MMV688704] | 83.23% | 53.57% | – | – | –
Cc1cc(C)cc(COc2ccc3c(C)c(CCC(=O)O)c(=O)oc3c2C)c1 [MMV676476] | 1.36% | -0.27% | 580 nM | – | –
NCCC[C@](N)(C(=O)O)C(F)F [MMV001625, α-Difluoromethylornithine, reference compound] | 69.72% | 81.23% | – | – | –
Cc1cc(Cl)ccc1NC(=O)CCc1ccc(S(=O)(=O)NCC(C)C)cc1 [MMV161996] | 75.91% | 98.90% | – | – | –
CCOc1ccc(-c2nc(CNCCc3ccc(F)cc3)cs2)cc1 [MMV688938] | 63.80% | 76.80% | – | – | –
O=C(C1CCN(c2cc(-n3cccc3)ncn2)CC1)N1CCc2ccccc2C1 [MMV687172] | 73.27% | 54.36% | – | – | –
COc1ccc(CN2CCOc3ccc(C(C)(O)CN(C)C)cc3C2)cc1C (centres unmarked) [MMV008439] | 83.20% | 126.81% | – | – | –

SMILES | Relative Bioluminescence (%) (2 µM compound) | Relative Bioluminescence (%) (10 µM compound) | EC50 | viability at 2 µM (2 µM compound) | viability at 10 µM (10 µM compound)
Nc1nccc2ccc(-c3ccc4nccn4c3)cc12 [MMV023233] | 106.85% | 120.49% | – | – | –
CC(C(=O)Nc1ccc2oc(-c3ccncc3)nc2c1)c1ccccc1 (centres unmarked) [MMV688471] | 59.14% | 49.33% | – | – | –
Nc1ccc2ncnc(Nc3ccc(OCc4cccc(F)c4)c(Cl)c3)c2c1 [MMV688273] | 63.86% | 0.09% | – | – | –
Cc1cccc(Cn2ccc(NC(=O)c3ccc4c(c3)OCO4)n2)c1 [MMV676386] | 127.03% | 120.21% | – | – | –
O=C(Nc1ccc(N2CCNCC2)cc1)c1ccn2ncc(-c3cccc(Cl)c3)c2n1 [MMV022478] | 88.45% | 5.54% | – | – | –
COc1cc(OC)cc(C(=O)NCC2Cc3cc(Cl)cc(-c4ccncc4)c3O2)c1 (centres unmarked) [MMV007471] | 87.80% | 69.68% | – | – | –
O=C(NC1CC1)c1ccc(CSCc2ccccc2Cl)o1 [MMV007803] | 113.68% | 107.95% | – | – | –
Nc1ncnc2c1ncn2C[C@@H](O)[C@@H](O)C(=O)O [MMV689255, D-Eritadenine] | 68.65% | 73.04% | – | – | –
CC(Oc1cccc(Cl)c1)C(=O)Nc1ccc2oc(-c3ccncc3)nc2c1 (centres unmarked) [MMV688472] | 83.48% | 74.96% | – | – | –
CS(=O)(=O)c1cccc(-c2cnc3[nH]cc(-c4ccc(CCC(=O)O)cc4)c3c2)c1 [MMV026020] | 94.58% | 94.82% | – | – | –
CC(C)(C)c1cc(C(=O)N2CCN(c3nccnc3C#N)CC2)n(Cc2ccccc2)n1 [MMV023949] | 80.37% | 52.45% | – | – | –
Cc1ccc(Oc2ccc(NC(=O)CNc3ccccc3N3CCCC3=O)cc2)cc1 [MMV020512] | 56.59% | 56.11% | – | – | –
C[C@H]1c2cccc(O)c2C(=O)C2=C(O)[C@]3(O)C(=O)C(C(N)=O)=C(O)[C@@H](N(C)C)[C@@H]3[C@@H](O)[C@@H]21 [MMV000011, Doxycycline, reference compound] | – | – | – | 95% | 94.7%
CC(=O)NC[C@H]1CN(c2ccc(N3CCSCC3)c(F)c2)C(=O)O1 [MMV688756, Sutezolid, reference compound] | – | – | – | 88.9% | 64.5%
CCc1nc2ccc(C(=O)NCc3ccc4c(c3)OCO4)cn2c1N(C)Cc1cccs1 [MMV407539] | 104.77% | 70.84% | – | – | –
CCS(=O)(=O)N(Cc1ccco1)Cc1cc2ccc(C)cc2[nH]c1=O [MMV676398] | 115.47% | 84.49% | – | – | –
Cc1ccc(S(=O)(=O)N2CCN(C(=O)c3cc(-c4ccccc4)n[nH]3)CC2)cc1 [MMV019742] | 69.14% | 102.67% | – | – | –
CCOc1ccccc1C(=O)Nc1cccc(-c2nc3ncccn3c2C)c1 [MMV019790] | 85.04% | 56.75% | – | – | –
CNCCC(Oc1ccc(C(F)(F)F)cc1)c1ccccc1 (centres unmarked) [MMV001561, Fluoxetine, reference compound] | – | – | – | 90.4% | 52.4%

SMILES | Relative Bioluminescence (%) (2 µM compound) | Relative Bioluminescence (%) (10 µM compound) | EC50 | viability at 2 µM (2 µM compound) | viability at 10 µM (10 µM compound)
Cc1ccc(C(=O)Nc2ccc(S(=O)(=O)O)c3cc(S(=O)(=O)O)cc(S(=O)(=O)O)c23)cc1NC(=O)c1cccc(NC(=O)Nc2cccc(C(=O)Nc3cc(C(=O)Nc4ccc(S(=O)(=O)O)c5cc(S(=O)(=O)O)cc(S(=O)(=O)O)c45)ccc3C)c2)c1 [MMV637953, Suramin, reference compound] | – | – | – | 105% | 117%
Cc1cc(NCCc2ccccc2)nc(NC(=N)Nc2ccc(Cl)cc2)n1 [MMV021660] | 89.16% | 56.67% | – | – | –
CC(=O)NC[C@H]1CN(c2ccc(-c3ccc(CNCc4cnn[nH]4)cc3)c(F)c2)C(=O)O1 [MMV688327, Radezolid, reference compound] | – | – | – | 87.8% | 126%
Nc1nccc2ccc(Oc3ccncc3)cc12 [MMV026313] | 56.90% | 66.48% | – | – | –
FC(F)(F)c1ccc(N(c2cccnc2)C2CCN(c3ccc(C(F)(F)F)cn3)CC2)cc1 [MMV689243] | 34.53% | 8.50% | – | – | –
CCCc1ccc(S(=O)(=O)Nc2ccc(CN3CCN(CC4CC4)CC3)cc2)cc1 [MMV688125] | 86.53% | 100.33% | – | – | –
CCOc1ccc(OCC(=O)Nc2cc(C)cc(C)c2)cc1 [MMV676470] | 87.35% | 79.72% | – | – | –
O=C(c1ccc(NCCO)cc1)C1C[C@H]1c1ccc(Cl)cc1 (some centres unmarked) [MMV676877] | 100.77% | 116.30% | – | – | –
CNc1snc(C)c1C(=O)NCCOc1ccc(OC)cc1 [MMV688554] | 117.68% | 66.57% | – | – | –
Brc1cncc(-c2cc(NCCCn3ccnc3)nc(-c3ccccc3)n2)c1 [MMV661713] | 76.01% | 83.31% | – | – | –
COc1ccc(-c2cncc3ccc(C(=O)NCCCn4ccnc4)nc23)cc1 [MMV020670] | 96.09% | 97.66% | – | – | –
Cc1cc2ccccc2n1CC(=O)N1CC(C(=O)N2CCCCC2)Oc2ccccc21 (centres unmarked) [MMV020520] | 108.71% | 127.42% | – | – | –
CC(Oc1ccccc1)C(=O)Nc1nc(-c2ccccn2)cs1 (centres unmarked) [MMV676411] | 48.75% | -0.81% | – | – | –
O=C1O[C@@H](COc2ccon2)CN1c1cc(F)c(C2=CCN(Cc3ccccc3)CC2)c(F)c1 [MMV687813] | 52.93% | 58.34% | – | – | –
CCC(C)NC(=O)c1ccc(NC(=O)C2(c3ccccc3)CCCC2)cc1 (centres unmarked) [MMV146306] | 97.77% | 40.43% | – | – | –
CCOc1ccc2cc(-c3nn(C(C)(C)C)c(N)c3C(N)=O)cnc2c1 [MMV688853] | 34.19% | 42.96% | – | – | –
Cc1cnc(N2CCN[C@@H](Cc3ccccc3)C2)nc1Oc1ccc(-n2ccnc2)cc1 [MMV687765] | 69.43% | 74.28% | – | – | –
FC(F)(F)c1cc(NCCc2ccccc2)nc(-c2ccccn2)n1 [MMV659010] | 95.95% | 88.01% | – | – | –
CC(c1cc(Cl)cc(Cl)c1)N(C)c1ncc2c(N)nc(N)nc2n1 (centres unmarked) [MMV689437] | 37.21% | 1.17% | – | – | –
